Test [1] deals with skin equivalent sold by the company EPISKIN. Put plainly: Topical DHEA on reconstructed epidermis: epidermal lipid analysis by HPTLC with [14C]acetate labelling. Type of test: cell-based. As to conditions: 2 μl of DHEA at 1×10^−4 M in ethanol, every 48 hours for 6 days, vs ethanol control. Here is the method:
In this example, 2 μl of DHEA at 1×10^−4 M in ethanol were applied every 48 hours, for 6 days, to a skin equivalent sold by the company EPISKIN (LYON, France), after culturing it for 7 days and incubating overnight with [^14C]acetate (2 μCi/ml). The culture and test media are those contained in the kit sold by the supplier. The control consists of an identical epidermal equivalent undergoing a topical application of 2 μl of ethanol diluted 1/1 000.
At the end of the incubation, the epidermal equivalent is detached from its collagenic support. The preparation of the lipids of the epidermal equivalent, and their analysis by HPTLC or high performance thin-layer chromatography, are carried out according to the technique and with the buffers described by M. Ponec (1991, Adv. Lipid Res., 24: 83-117). At the end of the migration of the lipids, autoradiography of the chromatography plate is carried out overnight.

Test [2] shares this test system. Put plainly: Epidermal differentiation in reconstructed epidermis: transglutaminase and filaggrin immunofluorescence, histological analysis. To be noted: 2 μl of DHEA at 1×10^−4 M in ethanol, topical, every 48 hours for 6 days. The format is cell-based.

Molecules are shown by their SMILES.

`C[C@]12CC[C@H](O)CC1=CC[C@@H]1[C@@H]2CC[C@]2(C)C(=O)CC[C@@H]12` [DHEA, dehydroepiandrosterone]: the “increase in the epidermal content of phospholipids compared with the control” value in test [1] is 35%. For the same compound, in test [2], the “histological analysis: number of granular layers or parakeratosis” value is “no increase in the number of granular layers or in parakeratosis”; the “modification in epidermal differentiation (expression of transglutaminase and of filaggrin, immunofluorescence labelling)” value is recorded as “no modification in epidermal differentiation”.

Values taken from patent US20040009196A1, “Use of dhea and some of its derivatives in a cosmetic composition for preventing or treating dermal atrophy” (priority 2000, published 2004).
